This note sets out measurements from paper PMC11391043, “Revealing the pH-dependent conformational changes in sol g 2.1 protein and potential ligands binding” (Scientific Reports, 2024).

Test [1] concerns the target T1, rSol g 2.1 protein (Solenopsis geminata, UniProt A0A9E7V488).
T1 sequence (A0A9E7V488 1-119): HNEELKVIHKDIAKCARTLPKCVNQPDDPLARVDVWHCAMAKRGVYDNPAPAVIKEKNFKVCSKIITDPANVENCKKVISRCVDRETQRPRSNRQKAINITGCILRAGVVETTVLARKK
Briefly: Fluorescence competitive binding assay (FCBA), 1-NPN displacement. The note with it: 2 µM rSol g 2.1, 5 µM 1-NPN. An excerpt:
(§1) The FCBA is that a fluorescence probe, N-phenyl-1-naphthylamine (1-NPN, purity > 98%, Sigma Aldrich) binds with the hydrophobic binding cavity of the protein, especially with Tryptophan amino acid (Trp). Then Trp will transfer energy to 1-NPN-probe, leading to an increased emission wavelength at approximately 400 nm with dose-dependent. Besides, when the aliquot of a ligand competitor, the ligand will be competed for 1-NPN-probe, resulting in a decreased emission wavelength at 400 nm. In this study, we performed the FCBA to determine the binding activity of Sol g 2.1 protein and the potential ligands. To examine affinity binding, a stock solution of 5 mM 1-NPN in methanol (HPLC grade) was gradually added to a solution containing 2 µM rSol g 2.1 in 50 mM Tris–HCl buffer (pH 5.5 and pH 7.4) with 1% tween 20. Final concentrations of 0, 0.5, 1, 2, 4, 6, 8, 10, and 12 µM of 1-NPN were achieved, with methanol serving as a negative control. Fluorescence intensity was measured using a spectrofluorometer (FluoroMax + SpectroFluorometer, Horiba Scientific) with excitation at 337 nm and emission scanning from 370 to 490 nm, at room temperature, in triplicate. The equilibrium dissociation (Kd) value was determined by plotting the fluorescence intensity at 400 nm against each 1-NPN concentration. The data were fitted to a one-site-specific binding model as follows: Y = Bmax*X/(Kd + X), where Y, X, Bmax, and Kd are the fluorescence intensity (counts/second), fluorescence probe concentration (μM), the maximum specific binding in the same units as Y, and the equilibrium dissociation constant in the same units as X.
The potential ligands, including (E)-β-Farnesene, α-Caryophyllene, and 1-Octen-3-ol (all, Tokyo Chemical Industry (TCI), Tokyo, Japan) were used as competitors in the FCBA. For this, a mixture of 2 µM rSol g 2.1 protein and 5 µM 1-NPN in 50 mM Tris–HCl buffer (pH 5.5 and pH 7.4) with 1% tween 20 was titrated with each ligand (5 mM stock in methanol) to final concentrations of 0, 2, 4, 6, 8, 10, 12, 14, 20, 24, 28, and 32 µM. The fluorescence intensity at 400 nm for each concentration was fitted to the One Site-Fit Ki model to determine the dissociation constant of competitor ligands (Ki) as follows: logEC50 = log (10^logKi*(1 + RadioligandNM/HotKdNM))[22],[57]. Here, RadioligandNM represents the concentration of fixed 1-NPN (nM), HotKdNM represents Kd (nM), and Ki represents the equilibrium dissociation constant (Molar). All experiments were conducted in triplicate and analyzed using GraphPad Prism 9 software (San Diego, CA, USA)[22].

Test [2] deals with T1, rSol g 2.1 protein. Briefly: Fluorescence binding assay of 1-NPN probe with rSol g 2.1 (Scatchard plots). The note with it: 50 mM Tris-HCl, ± SEM, triplicate.
Excerpt: as §1, with “To examine affinity binding, a stock solution of 5 mM 1-NPN in methanol (HPLC grade) was gradually added to a solution containing 2 µM rSol g 2.1 in 50 mM Tris–HCl buffer (pH 5.5 and pH 7.4) with 1% tween 20. Final concentrations of 0, 0.5, 1, 2, 4, 6, 8, 10, and 12 µM of 1-NPN were achieved, with methanol serving as a negative control.” left out

For `C=CC(O)CCCCC` (centres unmarked) [1-Octen-3-ol], the Ki was 5610 nM at rSol g 2.1 protein [1] (pH 5.5) and 2000 nM on rSol g 2.1 protein [1] (pH 7.4).
Turning to `C/C1=C\CC/C(C)=C/CC(C)(C)/C=C/C1` [α-Caryophyllene], the values for the Ki at rSol g 2.1 protein [1] (pH 5.5) and on rSol g 2.1 protein [1] (pH 7.4) were 16000 nM and 1060 nM, respectively.
Consider `c1ccc(Nc2cccc3ccccc23)cc1` [1-NPN, N-phenyl-1-naphthylamine], for which the dissociation constant (Kd) at rSol g 2.1 protein [2] (pH 5.5) turned out to be 4830 ± 30 nM; on rSol g 2.1 protein [2] (pH 7.4), 2330 ± 50 nM.
On to `C=CC(=C)CC/C=C(\C)CCC=C(C)C` [(E)-β-Farnesene], for which the Ki turned out to be 1240 nM at rSol g 2.1 protein [1] (pH 5.5) and 720 nM at rSol g 2.1 protein [1] (pH 7.4).

A word on the Ki: it is a measure of affinity in units of concentration, obtained from inhibition or displacement. One may read the Kd as the concentration at which binding is half-saturated. The low end stands for higher affinity, the high end for lower affinity.
